The values that follow come from patent US9029389B2 (Institut Pasteur Korea, priority 2011, dated 2015).

pIC50: −log10 of the molar value. Where only a bound is given, the exact number is not on record here.

In one assay the target is T1, Human 5-lipoxygenase (Homo sapiens, UniProt P09917).
T1 construct: purchased Cayman 60402; host or cells: insect cells
T1 sequence (P09917 1-674): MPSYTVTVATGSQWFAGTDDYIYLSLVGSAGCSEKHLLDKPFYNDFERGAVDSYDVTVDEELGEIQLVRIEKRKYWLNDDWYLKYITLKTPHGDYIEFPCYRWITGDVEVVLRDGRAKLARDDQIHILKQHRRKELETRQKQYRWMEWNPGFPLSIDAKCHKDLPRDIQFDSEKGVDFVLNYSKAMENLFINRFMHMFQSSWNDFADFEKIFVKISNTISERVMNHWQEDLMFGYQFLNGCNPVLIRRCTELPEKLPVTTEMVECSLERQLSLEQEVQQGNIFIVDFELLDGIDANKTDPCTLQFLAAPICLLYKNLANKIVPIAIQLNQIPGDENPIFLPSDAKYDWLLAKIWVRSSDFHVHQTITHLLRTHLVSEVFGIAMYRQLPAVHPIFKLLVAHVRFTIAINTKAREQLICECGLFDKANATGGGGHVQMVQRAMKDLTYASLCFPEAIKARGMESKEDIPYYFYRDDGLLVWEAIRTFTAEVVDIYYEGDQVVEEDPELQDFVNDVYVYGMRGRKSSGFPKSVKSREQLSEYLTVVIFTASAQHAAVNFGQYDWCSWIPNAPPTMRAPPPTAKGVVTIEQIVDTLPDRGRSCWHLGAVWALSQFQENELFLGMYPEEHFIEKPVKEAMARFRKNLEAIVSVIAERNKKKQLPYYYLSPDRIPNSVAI
Briefly: Activity of compounds against 5-LO enzyme (LTB4 measurement and/or fluorescence method). The format is biochemical. The conditions noted are these: 5-LO, single concentration of 10 uM in duplicate. The method, boiled down:
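Insect-cell human 5-LO preincubated 15 min at RT with compound (pH 7.4, 2 mM CaCl2, 0.1 mM ATP, 1% DMSO), then 3 uM arachidonic acid for 5 min at 37 °C; LTB4 quantified by EIA and/or LC/MS/MS. Alternatively, fluorescence of 5-HpETE via H2DCFDA, 100 uM ATP, 3 uM arachidonic acid, 5 min, RT; single 10 uM screen then 6- or 11-point IC50.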
Usually inhibition stands for the drop in the measured response relative to a control, in per cent. In turn, `CCc1nc2c(-c3ccncc3)cccn2c1C(=O)NCc1ccc(N2CCOCC2)cc1` [compound 284, 2-Ethyl-N-(4-morpholinobenzyl)-8-(pyridin-4-yl)imidazo[1,2-a]pyridine-3-carboxamide] yielded an inhibition at 10 µM of less than 40%. The same measure, in the same setting: next, `CCc1nc2ccc(Cl)cn2c1C(=O)NCc1ccc(N2CCC(COC3CCCC3)CC2)cc1` [compound 285, 6-Chloro-N-(4-(4-(cyclopentyloxymethyl)piperidin-1-yl)benzyl)-2-ethylimidazo[1,2-a]pyridine-3-carboxamide]: less than 40%; `CCc1nc2cc(Cl)ccn2c1C(=O)NCc1ccc(N2CCC(COC3CCCC3)CC2)cc1` [compound 286, 7-Chloro-N-(4-(4-(cyclopentyloxymethyl)piperidin-1-yl)benzyl)-2-ethylimidazo[1,2-a]pyridine-3-carboxamide]: 40 to 69%.

For `CCc1nc2cc(Cl)ccn2c1C(=O)NCc1ccc(-c2ccc(C=O)cc2)cc1` [compound 287, 7-Chloro-2-ethyl-N-((4′-formylbiphenyl-4-yl)methyl)imidazo[1,2-a]pyridine-3-carboxamide], the inhibition at 10 µM was 40 to 69%. `CCc1nc2ccc(Cl)cn2c1C(=O)NCc1ccc(N2CCC(C(=O)N(C)C)CC2)cc1` [compound 293, 6-Chloro-N-(4-(4-(dimethylcarbamoyl)piperidin-1-yl)benzyl)-2-ethylimidazo[1,2-a]pyridine-3-carboxamide] displayed an inhibition at 10 µM of less than 40%. `CCc1nc2cc(Cl)ccn2c1C(=O)NCc1ccc(N2CCC(C(=O)N(C)C)CC2)cc1` [compound 294, 7-Chloro-N-(4-(4-(dimethylcarbamoyl)piperidin-1-yl)benzyl)-2-ethylimidazo[1,2-a]pyridine-3-carboxamide] gave an inhibition at 10 µM of less than 40%. Take `CCc1nc2cc(Cl)ccn2c1C(=O)NCc1ccc(N2CCC(COC(F)F)CC2)cc1` [compound 295, 7-Chloro-N-(4-(4-((difluoromethoxy)methyl)piperidin-1-yl)benzyl)-2-ethylimidazo[1,2-a]pyridine-3-carboxamide]: the inhibition at 10 µM was greater than 69%. On to `CCc1nc2ccc(Cl)cn2c1C(=O)NCc1ccc(N2CCC(c3ccc(Cl)cc3)CC2)cc1` [compound 296, 6-Chloro-N-(4-(4-(4-chlorophenyl)piperidin-1-yl)benzyl)-2-ethylimidazo[1,2-a]pyridine-3-carboxamide], for which the inhibition at 10 µM was greater than 69%.

Take `CCc1nc2ccc(Cl)cn2c1C(=O)NCc1ccc(N2CCC(OCc3ccc(F)cc3)CC2)cc1` [compound 300, 6-Chloro-2-ethyl-N-(4-(4-(4-fluorobenzyloxy)piperidin-1-yl)benzyl)imidazo[1,2-a]pyridine-3-carboxamide]: the inhibition at 10 µM is less than 40%. In turn, `CCc1nc2cc(Cl)ccn2c1C(=O)NCc1ccc(N2CCC(OCc3ccc(F)cc3)CC2)cc1` [compound 301, 7-Chloro-2-ethyl-N-(4-(4-(4-fluorobenzyloxy)piperidin-1-yl)benzyl)imidazo[1,2-a]pyridine-3-carboxamide] gave an inhibition at 10 µM of 40 to 69%.

`CCc1nc2cc(Cl)ccn2c1C(=O)NCc1ccc(N2CCOCC2)c(Cl)c1` [compound 303, 7-Chloro-N-(3-chloro-4-morpholinobenzyl)-2-ethylimidazo[1,2-a]pyridine-3-carboxamide] registered an inhibition at 10 µM of less than 40%.

Take `CCc1nc2ccc(Cl)cn2c1C(=O)NCc1ccc(N2CCC(C(=O)O)CC2)cc1` [compound 307, 1-(4-((6-Chloro-2-ethylimidazo[1,2-a]pyridine-3-carboxamido)methyl)phenyl)piperidine-4-carboxylic acid]: the inhibition at 10 µM is less than 40%. `CCc1nc2ccc(Cl)cn2c1C(=O)NCc1ccc(N2CCC(Oc3ccc(F)cc3)CC2)cc1` [compound 308, 6-Chloro-2-ethyl-N-(4-(4-(4-fluorophenoxy)piperidin-1-yl)benzyl)imidazo[1,2-a]pyridine-3-carboxamide]: the inhibition at 10 µM was 40 to 69%. `CCc1nc2ccc(C)cn2c1C(=O)NCc1ccc(N2CCOCC2)cc1` [compound 315, 2-ethyl-6-methyl-N-(4-morpholinobenzyl)imidazo[1,2-a]pyridine-3-carboxamide] gave an inhibition at 10 µM of less than 40%. On the same count and under the same terms, next, `CCc1nc2ccc(Cl)cn2c1C(=O)NCc1ccc(N2CCC(NC(=O)Cc3ccc(F)cc3)CC2)cc1` [compound 316, 6-chloro-2-ethyl-N-(4-(4-(2-(4-fluorophenyl)acetamido)piperidin-1-yl)benzyl)imidazo[1,2-a]pyridine-3-carboxamide]: less than 40%; `CCc1nc2ccc(Cl)cn2c1C(=O)NCc1ccc(N2CCC(OCc3ccccc3)CC2)cc1` [compound 317, N-(4-(4-(benzyloxy)piperidin-1-yl)benzyl)-6-chloro-2-ethylimidazo[1,2-a]pyridine-3-carboxamide]: less than 40%; `CCc1nc2ccc(Cl)cn2c1C(=O)NCc1ccc(N2CCC(NC(=O)c3ccc(F)cc3)CC2)cc1` [compound 318, 6-chloro-2-ethyl-N-(4-(4-(4-fluorobenzamido)piperidin-1-yl)benzyl)imidazo[1,2-a]pyridine-3-carboxamide]: less than 40%. As for `CCc1nc2ccc(Cl)cn2c1C(=O)NCc1ccc(N2CCN(C(=O)c3ccc(F)cc3)CC2)cc1` [compound 319, 6-chloro-2-ethyl-N-(4-(4-(4-fluorobenzoyl)piperazin-1-yl)benzyl)imidazo[1,2-a]pyridine-3-carboxamide], the inhibition at 10 µM was less than 40%. Compound `CCc1nc2ccc(Cl)cn2c1C(=O)NCc1ccc(N2CCN(C(=O)Cc3ccc(F)cc3)CC2)cc1` [compound 320, 6-chloro-2-ethyl-N-(4-(4-(2-(4-fluorophenyl)acetyl)piperazin-1-yl)benzyl)imidazo[1,2-a]pyridine-3-carboxamide] registered an inhibition at 10 µM of less than 40%. Still for that read-out and setting: next, `CCc1nc2ccc(Cl)cn2c1C(=O)NCc1ccc(N2CCC(C)(O)CC2)cc1` [compound 321, 6-chloro-2-ethyl-N-(4-(4-hydroxy-4-methylpiperidin-1-yl)benzyl)imidazo[1,2-a]pyridine-3-carboxamide]: less than 40%.

Compound `CCc1nc2ccc(Cl)cn2c1C(=O)NCc1ccc(N2CCC(O)(C(C)(C)C)CC2)cc1` [compound 322, N-(4-(4-(tert-butyl)-4-hydroxypiperidin-1-yl)benzyl)-6-chloro-2-ethylimidazo[1,2-a]pyridine-3-carboxamide] showed an inhibition at 10 µM of less than 40%. As for `CCc1nc2ccc(Cl)cn2c1C(=O)NCc1ccc(N2CCC(C(=O)c3ccc(F)cc3)CC2)cc1` [compound 323, 6-chloro-2-ethyl-N-(4-(4-(4-fluorobenzoyl)piperidin-1-yl)benzyl)imidazo[1,2-a]pyridine-3-carboxamide], the inhibition at 10 µM was less than 40%.

The compound `CCc1nc2ccc(Cl)cn2c1C(=O)NCc1ccc(N2CCC(C(=O)c3ccc(OC(F)(F)F)cc3)CC2)cc1` [compound 324, 6-chloro-2-ethyl-N-(4-(4-(4-(trifluoromethoxy)benzoyl)piperidin-1-yl)benzyl)imidazo[1,2-a]pyridine-3-carboxamide] displayed an inhibition at 10 µM greater than 69%.

In turn, `CCc1nc2ccc(Cl)cn2c1C(=O)NCc1ccc(N2CCC(C(=O)Cc3ccc(F)cc3)CC2)cc1` [compound 325, 6-chloro-2-ethyl-N-(4-(4-(2-(4-fluorophenyl)acetyl)piperidin-1-yl)benzyl)imidazo[1,2-a]pyridine-3-carboxamide] yielded an inhibition at 10 µM of less than 40%. Compound `CCc1nc2ccc(Cl)cn2c1C(=O)NCc1ccc(C2CCN(C(=O)c3ccc(F)cc3)CC2)cc1` [compound 326, 6-chloro-2-ethyl-N-(4-(1-(4-fluorobenzoyl)piperidin-4-yl)benzyl)imidazo[1,2-a]pyridine-3-carboxamide] yielded an inhibition at 10 µM of less than 40%.

Compound `CCc1nc2ccc(Cl)cn2c1C(=O)NCc1ccc(N2CCC(O)(c3ccccc3)CC2)cc1` [compound 328, 6-chloro-2-ethyl-N-(4-(4-hydroxy-4-phenylpiperidin-1-yl)benzyl)imidazo[1,2-a]pyridine-3-carboxamide] displayed an inhibition at 10 µM of less than 40%. Still for that read-out and setting: next, `CCc1nc2ccc(Cl)cn2c1C(=O)NCc1ccc(/C=C/c2ccc(F)cc2)cc1` [compound 329, (E)-6-chloro-2-ethyl-N-(4-(4-fluorostyryl)benzyl)imidazo[1,2-a]pyridine-3-carboxamide]: less than 40%; `CCc1nc2ccc(Cl)cn2c1C(=O)N1CCC(OCc2ccc(C)cc2)CC1` [compound 331, (6-chloro-2-ethylimidazo[1,2-a]pyridin-3-yl)(4-((4-methylbenzyl)oxy)piperidin-1-yl)methanone]: less than 40%.

The same assay, now with this note: 6 or 11 point dose response in duplicate.
Broadly, the pIC50 is the IC50 on a negative log10 scale, so that one unit is a factor of ten. Higher therefore signals a low IC50. `CCc1nc2cc(Cl)ccn2c1C(=O)NCc1ccc(N2CCC(COC(F)F)CC2)cc1` [compound 295, 7-Chloro-N-(4-(4-((difluoromethoxy)methyl)piperidin-1-yl)benzyl)-2-ethylimidazo[1,2-a]pyridine-3-carboxamide] showed a pIC50 of less than 4.70. `CCc1nc2ccc(Cl)cn2c1C(=O)N1CCC(OCc2ccccc2)CC1` [compound 330, (4-(benzyloxy)piperidin-1-yl)(6-chloro-2-ethylimidazo[1,2-a]pyridin-3-yl)methanone] gave a pIC50 of less than 4.70.
